Entries after “also recorded” stand apart in the source; their conditions may differ.
How the values were obtained:
HMLER CD24^low cells [1] = experiment: Fluorescence microscopy of ferritin subcellular localization; assay type: cell-based, human; settings: 6 h
iCSCA2 cells = experiment: Immunoblotting of iron homeostasis regulatory proteins; assay type: cell-based
Description: Immunoblotting. Cells were treated as indicated, then washed twice with PBS and lysed with 2× Laemmli buffer. Cell extracts were heated at 95° C. for 5 min, sheared through a 26-gauge needle and quantified with a Nanodrop 2000 (Thermo Scientific). Protein lysates (˜100 μg) were resolved by SDS-PAGE electrophoresis and transferred onto PVDF membranes (Amersham). Membranes were blocked with 5% BSA, 0.1% Tween-20/TBS for 1 h. The blots were then probed with the relevant primary antibodies in 5% BSA, 0.1% Tween-20/TBS at 4° C. overnight with gentle agitation. Membranes were washed with 0.1% Tween-20/TBS for 30 min and were incubated with secondary antibodies for 1 h at RT. Antigens were detected by ECL (Amersham). Imaging was performed using a ChemiDoc™ XRS+ System (Biorad).

SW480 = experiment: Sensibility to AM5; assay type: cell-based; settings: SW480, Colon
Description: (§1) Cell viability assay. Cell viability assay was carried out by plating 1000 cells/well in 96-well plates. Cells were treated as indicated for 72 h. CellTiter-Blue® Reagent (G8081, Promega) was added after 72 h treatment and cells were incubated for 1 h before recording fluorescence intensities (Excitation, 560/20 nm; Emission, 590/10 nm) using a Perkin Elmer Wallac 1420 Victor2 Microplate Reader.

SW620 = experiment: Sensibility to AM5; assay type: cell-based; settings: SW620, Colon
Description: as §1

[2] = test system: ALDH+ iCSCL-10A2 cell subpopulation; experiment: Flow cytometry of ALDH+ CSC subpopulation in vitro; assay type: cell-based; settings: 0.5 μM, 48 h
Description: FIG. 13. Sal and AM5 effect on an ALDH+CSC cell population in vitro. Flow cytometry measurement of the effect of 0.5 μM Sal and AM5 against ALDH+ iCSCL-10A2 cell subpopulation after treated for 48 h. DEAB is the diethylaminobenzaldehyde ALDH inhibitor.

[3] = test system: patient-derived xenografts (PDX 1 and 2); assay type: in vivo, NOD/SCID mice; settings: intra-peritoneal; for ratio of residual ALDH+ cells / tumor growth: 4 weeks
Description: Patient derived xenografts (PDXs). PDXs were established as previously described in Charafe-Jauffret et al., Cancer Res. 73, 7290-7300 (2013) from tissue samples collected prospectively at the Institut Paoli-Calmettes (IPC). Samples of human origin and associated data were obtained from the IPC/CRCM Tumor Bank that operates under authorization #AC-2007-33 granted by the French Ministry of Higher Education and Research. Before scientific use of samples and data, patients were appropriately informed and asked to consent in writing, in compliance with French and European regulations. The project was approved by the IPC Institutional Review Board. Cells from 2 different patient-derived xenografts (PDX 1 and 2) were transplanted orthotopically into fat pads of 4-week-old female non-obese diabetic/severe combined immunodeficient (NOD/SCID) mice (NOD.CB17-Prkdcscid/J, Charles River France) after mechanical treatment and enzymatic digestion using collagenase/hyaluronidase (StemCell Technologies) to generate single-cell suspension suitable for implantation in vivo. PDXs were primarily established as previously described in Caraft-Jauffret et al., and evaluated for ALDEFLUOR-positive CSCs. We injected single cancer cells into fat pads of NOD/SCID mice and monitored tumor growth. When tumor size reached approximately 150 mm^3, Sal and AM5 treatments were performed as indicated above for FIGS. 14 and 15. Tumor growth was compared with that of docetaxel and placebo-treated controls. After 4 weeks of treatment, the animals were sacrificed and the proportion of ALDEFLUOR-positive CSCs was measured in each residual tumor. All animal studies were approved by the French Ministry of Higher Education and Research (authorization number D130554) and ethical committee (number 14), of Aix-Marseille Université. No randomization was used and experimenters were blinded to drug treatments and tissue analyses.
Aldefluor assay. The analysis was processed on single-cell suspension from the PDXs obtained as described above. The ALDEFLUOR Kit (Stemcell™ Technologies) was used to isolate the population with high aldehyde dehydrogenase enzymatic activity using an LSR2 cytometer (Becton Dickinson Biosciences), as previously described in Charafe-Jauffret et al. To eliminate cells of mouse origin from the PDXs, we used staining with an anti-H2Kd antibody (BD Biosciences, 1:200, 20 min on ice) followed by staining with a secondary antibody labeled with phycoerythrin (PE; Jackson Laboratories, 1:250, 20 min on ice).

HMLER CD24^low cells [4] = experiment: Lysosomal membrane permeabilization assay; assay type: cell-based, human; settings: 48 h
Description: Lysosomal membrane permeabilization assay. Lysosomal membrane permeabilization (LMP) was assessed by monitoring the release of FITC-Dextran (FD10S, 10 kDa, Sigma) from lysosomes. In brief, cells were incubated with 1 mg/mL FITC-Dextran for 2 h at 37° C. Cells were washed, chased with culture medium for 2 h and treated as indicated for 48 h or with CQ (positive control) for 3 h. Cells were then fixed with 2% formaldehyde/PBS, washed with PBS, mounted and acquired with a 60×APO TIRF oil immersion objective of Nipkow Spinning Disk confocal system.

MCF-7 tumors = experiment: Perl's reaction, iron(III) in MCF-7 xenograft tumor tissue; assay type: in vivo, mice; settings: 3 mg/kg body weight/day, intraperitoneal
Description: Xenograft tumor formation experiments. MCF-7 cell cultures were collected, enzymatically dissociated, washed with PBS, and re-suspended in a PBS/Matrigel mixture (1:1 v/v). The mixture (0.1 mL) was then implanted in the mammary fat pad of 5-week-old female AthymicNude-Fox1nu mice bilaterally (Harlan, France). Mice were maintained in individually-ventilated cages (Tecniplast, France) under constant temperature and humidity. All experiments were performed under laminar flow (Tecniplast France). Mice received estradiol supplementation (0.4 mg/kg) the same day and 7 days from cell injection, and were observed and palpated for tumor appearance. Mice were treated with AM5 (3 mg/kg body weight/day) by means of intraperitoneal injections every 5 opened days of the week. Tumor growth was measured weekly using calipers. Tumor volume was determined using the standard formula: L×W^2×0.52, where L and W are the longest and shortest diameters, respectively. All animal studies were approved by the Direction des services Vétérinaires, Prefecture de Police, Paris, France (authorization number A75-14-08) and the ethical committee (number 34) of Paris Descartes University. No randomization was used and experimenters were blinded to drug treatments and tissue analyses.
Perl's reaction. Tumors from mice were removed at time of sacrifice. Tumors were fixed with 4% PFA and embedded in paraffin. […]

Compound | subcellular localization of ferritin (HMLER CD24^low cells [1]) | levels of IRP2, TfR and ferritin (iCSCA2 cells) | Sensibility to AM5 (SW480) | Sensibility to AM5 (SW620) | effect against ALDH+ subpopulation [2] | toxicity at effective doses [3] | ratio of residual ALDH+ cells [3] | tumor growth [3] | lysosomal membrane permeabilization (release of lysosomal dextran) (HMLER CD24^low cells [4]) | iron(III) in tumor tissue (MCF-7 tumors)
C#CCN[C@@H]1C=C[C@]2(O[C@H]([C@@H](CC)C(=O)[C@@H](C)[C@@H](O)[C@H](C)C3O[C@@H](C(CC)C(=O)O)CC[C@@H]3C)[C@@H](C)C[C@H]2C)O[C@@]12CC[C@@](C)([C@H]1CC[C@](O)(CC)[C@H](C)O1)O2 (stereo partly drawn) [AM5, Sal-Propargylamine] | re-localization of ferritin to the lysosomal compartment | response characteristic of a cytosolic depletion of iron | Third | Third | selectively targeted the ALDH+ subpopulation; also recorded: more effectively than Sal | without detectable toxicity | reduced ratio of ALDH+ cells | reduce tumor growth | induced a permeabilization of the lysosomal membrane | accumulation of iron(III)
CC[C@@H](C(=O)[C@@H](C)[C@@H](O)[C@H](C)[C@@H]1O[C@@H]([C@@H](CC)C(=O)O)CC[C@@H]1C)[C@H]1O[C@]2(C=C[C@@H](O)[C@]3(CC[C@@](C)([C@H]4CC[C@](O)(CC)[C@H](C)O4)O3)O2)[C@H](C)C[C@@H]1C [Sal, salinomycin, reference compound] | – | response characteristic of a cytosolic depletion of iron | – | – | – | without detectable toxicity | reduced ratio of ALDH+ cells | reduce tumor growth | induced a permeabilization of the lysosomal membrane | –
